Experimental findings from patent US8168628B2, “Conjugated psychotropic drugs and uses thereof” (Ramot at Tel-Aviv University Ltd., priority 2001, dated 2012) are described below.

As a reminder, the IC50 is the concentration at which inhibition is half-maximal.

One data set has as its system MES SA DX5 (MDR). In words: Proliferation test, MES SA DX5 (MDR) cells. The data set is classed as cell-based. As to conditions: Homo sapiens, linear regression of survival percentage. On the procedure:
(§1) Cell lines: Human prostate carcinoma (PC-3), human colon carcinoma (HT-29), murine melanoma (B-16) and its drug resistant subclone (B-16 MDR), mouse fibroblasts (3T3), myeloid leukemia (HL 60) and its drug resistant subclone (HL 60 MX2), endometrium cell line (MES SA) and its drug resistant subclone (MES DX5), jurkat T lymphoma and monocyte leukemia (U-937), were used in this study.
(§2) Proliferation of cancer and normal cells: Proliferation was measured by neutral red assay or by a fluorometric assay quantitating DNA content. In the neutral red assay, the neutral red is absorbed by lysosomes, thus causing coloring of living cells. Quantitative analysis is performed by colorimetric assay (ELISA reader at 550 nm). In the fluorometric assay, alamar blue is used as a redox indicator. Alamar blue fluorescence was measured at an excitation wavelength of 544 nm and an emission wavelength of […] (FLUOstar BMG Lab Technologies, Offenburg, Germany).
(§3) The cells were sub-cultured and the tested compounds were added thereto in increasing concentrations. The IC50 values were determined by linear regression of the survival percentage of the cells.

A further data set relates to mice. Briefly: Catalepsy in mice (bar between two cages). It counts as in vivo, mouse. The method, then: Young adult male and female mice were purchased from Harlan, Israel. The animals were housed for 4-7 days under controlled conditions prior to experimentation. Experiments were conducted in a double blind procedure. In each experiment various treatment groups (about 10 animals each) were tested.
Catalepsy in mice: The appearance of stereotypic cataleptic behavior in mice following the neuroleptic treatment was measured in two different sets of experiments.
The catalepsy was determined using a system of two cages and a bar therebetween. The mouse was hung in the middle of the bar, and the percentage of animals reaching the target within 2 minutes was monitored 1 hour, 2 hours and 3 hours following the treatment.
The catalepsy was determined using the system described hereinabove. The mouse was hung in the middle of the bar, and the time it took the animal to reach the target was measured.

The next data set has as its system C6 rat glioma cells. Briefly: DNA fragmentation in C6 rat glioma cells (propidium iodide flow cytometry). It counts as cell-based. As to conditions: Cisplatin 30 μM; perphenazine 25 and 50 μM; AN 168 25, 50 μM (FIG. 18). The method, then: Apoptosis and DNA fragmentation: Fragmentation of cell nuclei was studied by flow cytometric analysis of propidium iodide-stained cells. This analysis was performed using a FACScan (Becton Dickinson, Mountain View, Calif.) equipped with an argon ion laser adjusted to an excitation wavelength of 480 nm and with a Doublet Discrimination Module (DDM). Lysis II (Becton Dickinson) software was used for data acquisition. Apoptotic nuclear changes were evaluated according to the criteria of Nicolletti et al..
The DNA fragmentation was determined by the propidium iodide flow cytometric method described hereinabove.
For orientation: In flow cytometry, cells or beads pass a laser one at a time.

For another data set, the system named is MES SA. Briefly: Proliferation test, MES SA cells. As to conditions: Homo sapiens, linear regression of survival percentage. It counts as cell-based. On the procedure: as §1, §2, §3
The subject of a further data set is rat myocytes. The method, then: Toxicity: In vitro toxicity was determined by measuring the effect of the tested compounds (either known neuroleptics or the chemical conjugates of the invention) on primary cultures of neurons and whole brain neuron and glia cells obtained from the brains of neonatal mice. In vitro toxicity of perphenazine and its chemical conjugate AN 168 was also determined with rat myocytes. Acute toxicity in vivo as determined by the LD50 was evaluated on 2 months old ICR mice following the administration of a single intraperitoneal bolus-dose of drug.

In another data set the test system is Jurkat T lymphoma cells. In words: Proliferation / viability test, Jurkat T lymphoma cells. It counts as cell-based. As to conditions: Homo sapiens. The method, then: as §1, §2, §3
The subject of a further data set is HL 60. Briefly: Proliferation test, HL 60 cells. The data set is classed as cell-based. As to conditions: Homo sapiens, linear regression of survival percentage. The method, then:
as §1, §2, §3

For the next data set, the system named is B16 MDR. Briefly: Proliferation test, B16 MDR cells. It counts as cell-based, murine. The following applies: Mus musculus; linear regression of survival percentage. The method, then: as §1, §2, §3
The next data set deals with Normal rat fibroblasts. Briefly: Proliferation test, normal rat fibroblasts. The data set is classed as cell-based. The following applies: Fibroblast, linear regression of survival percentage. On the procedure: The primary cultures of rat fibroblasts were obtained from neonatal rats using known procedures.
as §2, §3

Where a name gives a salt, the structure may show the parent alone. Read-outs that look alike come from different tables or passages of the source.

In the case of `NCCCC(=O)OCCN1CCN(CCCN2c3ccccc3Sc3ccc(Cl)cc32)CC1` [AN-168, Perphenazine 4-aminobutyrate Trihydrochloride], the concentration for half-maximal inhibition (IC50) with MES SA DX5 (MDR) amounted to 17.2 µM; in the data set with MES SA it was 18.2 µM; in the data set on Jurkat T lymphoma cells (alamar blue method (FIG. 15), read-out: IC50, Jurkat T lymphoma cells viability), 19 µM; in the data set with Jurkat T lymphoma cells (linear regression of survival percentage, read-out: IC50, JURKAT), 11.3 µM; in the data set on HL 60, 15.1 µM; in the data set on B16 MDR it was 23 ± 16 µM. This compound gave an IC50 in the data set on Normal rat fibroblasts of 45.8 µM. Also, the “catalepsy: percentage of animals reaching the target within 2 minutes” value with mice (adult male mice, 1.5 mg/kg perphenazine or equimolar dose (FIG. 7a)) is given as “substantially lower disability”. For the same compound, the “catalepsy: time it took the animals to reach the target” value in the data set with mice (young female mice, 2.5 mg/kg perphenazine or equimolar dose, 2 and 3 hours after treatment (FIG. 7b)) is “much faster than the animals treated with perphenazine alone”. In addition, the DNA fragmentation result with C6 rat glioma cells is “induced a dramatically increase in DNA fragmentation”. Besides, the “decrease in cells viability” value in the data set on rat myocytes is recorded as “did not cause any decrease in cells viability at all concentrations”.
